Test results reported in patent US11214772B2, “Production method for retinal tissue” (SUMITOMO DAINIPPON PHARMA CO., LTD., priority 2014, dated 2022).

Assays:
Type in all cases: cell-based
[1] = system: human iPS cells (201B7 strain); assay: Immunostaining of aggregate frozen sections for retinal tissue markers Chx10 and Rx; design: proportion of Chx10-positive cells: dose or concentration left out as unconfirmed; conditions: Example 3, Essential 8, SAG day 0, day 18
Text: (§1) Cell aggregates on day 18 after the start of suspension culturing were fixed with 4% para-formaldehyde to produce frozen sections. These frozen sections were immunostained for Chx10 (anti-Chx10 antibody, Exalpha, sheep), which is one of the retinal tissue markers, or Rx (anti-Rx antibody, manufactured by TAKARA, guinea pig), which is one of the retinal tissue markers.
Cell aggregates on day 18 after the start of suspension culturing were fixed with 4% para-formaldehyde to produce frozen sections. These frozen sections were immunostained for Chx10 (anti-Chx10 antibody, Exalpha, sheep), which is one of the retinal tissue markers.

[2] = system: human iPS cells (DSPC-3 strain); assay: Bright field observation of cell aggregates in suspension culture (neuroepithelium formation); conditions: Example 8; StemFit; SAG 300 nM day 0; day 22
Experimental: The thus-prepared subconfluent human iPS cells were treated with the cell dispersion solution by using TrypLE Select (manufactured by Life Technologies), further dispersed into single cells by pipetting operation, and the above human iPS cells dispersed into single cells were suspended in 100 μl of a serum-free medium at 1.2×10^4 cells per well of a non-cell-adhesive 96-well culture plate (SUMILON SPHEROID V-bottom plate PrimeSurface 96V-bottom plate, SUMITOMO BAKELITE). Thereafter, the cells were subjected to suspension culturing at 37° C., 5% CO2. As the serum-free medium (gfCDM+KSR) therefor, a serum-free medium which is a 1:1 mixture of F-12 medium and IMDM medium supplemented with 10% KSR, 450 μM 1-monothioglycerol, 1× Chemically defined lipid concentrate was used. At the time of the start of suspension culturing (day 0 after the start of suspension culturing, start of step 2), the above serum-free medium supplemented with Y27632 (final concentration 20 μM) and further supplemented with SAG as an exogenous Shh signal transduction pathway activating substance (final concentration 300 nM), or not supplemented with SAG (final concentration 0 nM) was used (FIG. 10). On day 2 after the start of suspension culturing, cell aggregates were formed. […]

[3] = system: human iPS cells (1231A3 strain); assay: Immunostaining of aggregate cryosections for retinal tissue markers Chx10 and Rx
Text: The above cell aggregates on day 19 after the start of suspension culturing were each fixed with 4% para-formaldehyde to give cryosections. These cryosections were immunostained for Chx10 (anti-Chx10 antibody, manufactured by Exalpha, sheep), which is one of the retinal tissue markers, or Rx (anti-Rx antibody, manufactured by TAKARA, guinea pig), which is one of the retinal tissue markers. In judgment of whether the above marker is positive in the immunostaining analysis, a fluorescence intensity which is not less than 2 times higher than that of the background was taken as positive.
as §1, with “The thus-prepared cell” for “Cell”, “culturing, which were produced by adding SAG in step 2 from feeder-free iPS cells as a starting material,” for “culturing”, “markers. These immunostained sections were observed under an inverted fluorescence microscope.” for “markers.”
The cell aggregates on day 18 after the start of suspension culturing were fixed with 4% para-formaldehyde to produce frozen sections. These frozen sections were immunostained for Chx10 (anti-Chx10 antibody, Exalpha, sheep), which is one of the retinal tissue markers.

[4] = Example 1, StemFit, SAG 300 nM day 0, BMP4 1.5 nM day 6, day 19
[5] = Example 1, StemFit, SAG 300 nM day 0, no BMP4, day 19
[6] = Example 4 Condition 1, SAG 300 nM day 0, BMP4 1.5 nM day 3, day 18
[7] = Example 4 Condition 2, SAG 300 nM day 0, BMP4 1.5 nM day 6, day 18
[8] = Example 5 Condition 1, SAG 600 nM day 0, BMP4 1.5 nM day 3, day 18
[9] = Example 5 Condition 2, SAG 600 nM day 0, BMP4 1.5 nM day 6, day 18

## CNC1CCC(N(Cc2cccc(-c3ccncc3)c2)C(=O)c2sc3ccccc3c2Cl)CC1 (centres unmarked) [SAG]
[1]; BMP4 1.5 nM day 6
  proportion of Rx-positive cells in the total cells: not less than 40%
[1]; no BMP4
  proportion of Chx10-positive cells: not more than 3%
  proportion of Rx-positive cells in the total cells: not more than 3%
[2]
  aggregate shape and neuroepithelium formation (bright field): cell aggregates were maintained, and neuroepithelium was formed
[3]; [4]
  proportion of Chx10-positive cells: not less than 60%
  proportion of Rx-positive cells in the total cells: not less than 60%
[3]; [5]
  proportion of Chx10-positive cells: less than 3%
  proportion of Rx-positive cells in the total cells: less than 3%
[3]; [6]
  proportion of Chx10-positive cells: about 40%
  proportion of Rx-positive cells in the total cells: about 40%
[3]; [7]
  proportion of Chx10-positive cells: about 40%
  proportion of Rx-positive cells in the total cells: about 40%
[3]; [8]
  proportion of Chx10-positive cells: about 40%
  proportion of Rx-positive cells in the total cells: about 40%
[3]; [9]
  proportion of Chx10-positive cells: about 40%
  proportion of Rx-positive cells in the total cells: about 40%
[3]; Example 7, SAG 30 nM or Shh 300 ng/ml day 0, BMP4 1.5 nM day 3, day 18
  presence of Chx10-positive cells in the cell aggregate: contained Chx10-positive cells
